In patent publication US20260250325A1, “Antiviral Polypeptide Membrane Fusion Inhibitor, and Preparation Method and Application Thereof” (priority 2025, published 2026):
Where a SMILES comes first, the peptide text is derived from it. The star is where a group is joined. Succinyl(4-O-cholesteryl) = CC(C)CCC[C@@H](C)[C@H]1CC[C@H]2[C@@H]3CC=C4C[C@@H](OC(=O)CCC(=O)*)CC[C@]4(C)[C@H]3CC[C@]12C

What was measured:
[1] = Cytotoxicity test in HEp-2 cells (CCK8 cell viability); format: cell-based; conditions: human; HEp-2 cells, CCK8, 1 day; read-out: CC50
Summary of the method: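 HEp-2 cells seeded at 30,000/well, cultured overnight at 37° C./5% CO2, then exposed to diluted compound for 1 day in 0.5% DMSO. Viability read by CCK8, normalised to untreated-cell and medium-only controls; CC50 from four-parameter variable-slope fit.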

hPIV3 C243 virus strain = format: cell-based, hPIV; conditions: LLC-MK2 cells, hPIV3 C243, plaque reduction; read-out: EC50 against hPIV3 virus
Summary of the method: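 LLC-MK2 cells (40,000/well) infected with about 200 PFU of virus preincubated 1 h with the sample, then overlaid with 0.8% CMC medium containing the sample (0.5% DMSO) for 1 day at 37 °C. Plaques immunostained with TrueBlue and counted; 8 concentrations in duplicate, EC50 from a four-parameter fit.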

Compound	CC50 at 1 day [1]	EC50 (hPIV3 C243 virus strain)
CC[C@H](C)[C@H](NC(=O)[C@H](CO)NC(=O)[C@H](C)NC(=O)[C@H](CC(=O)O)NC(=O)[C@H](Cc1ccccc1)NC(C)=O)C(=O)N[C@@H](CCC(=O)O)C(=O)N[C@@H](CCC(=O)O)C(=O)N[C@H](C(=O)N[C@@H](CC(N)=O)C(=O)N[C@@H](CCCNC(=N)N)C(=O)N[C@@H](CCCNC(=N)N)C(=O)N[C@H](C(=O)N[C@@H](CCC(=O)O)C(=O)N[C@@H](CCC(=O)O)C(=O)N[C@@H](CO)C(=O)N[C@@H](CC(C)C)C(=O)N[C@@H](CCCNC(=N)N)C(=O)N[C@@H](CCCNC(=N)N)C(=O)N[C@H](C(=O)N[C@@H](CCC(=O)O)C(=O)N[C@@H](CCC(=O)O)C(=O)N[C@@H](CO)C(=O)N[C@@H](CC(=O)O)C(=O)N[C@@H](CCCNC(=N)N)C(=O)N[C@@H](CCCNC(=N)N)C(=O)N[C@@H](CC(C)C)C(=O)N[C@@H](CCC(=O)O)C(=O)N[C@@H](CCC(=O)O)C(=O)N[C@H](C(=O)N[C@@H](CC(N)=O)C(=O)N[C@@H](C)C(=O)N[C@@H](CCC(=O)O)C(=O)N[C@@H](C)C(=O)N[C@@H](C)C(=O)N[C@@H](C)C(=O)N[C@@H](CCCCN)C(=O)N[C@@H](CCCCNC(=O)CCC(=O)O[C@H]1CC[C@@]2(C)C(=CC[C@H]3[C@@H]4CC[C@H]([C@H](C)CCCC(C)C)[C@@]4(C)CC[C@@H]32)C1)C(N)=O)C(C)C)[C@@H](C)CC)[C@@H](C)CC)C(C)C [Compound 42] (Ac-FDASIEEVNRRIEESLRRIEESDRRLEEVNAEAAAKK(Succinyl(4-O-cholesteryl))-NH2)	3710 nM	18.9 nM
Ac-WDEFDASISQVNEKINQSLEEIRKSDELLHNVNALEAAAKK(Succinyl(4-O-cholesteryl))-NH2 [Compound 38]	10900 nM	26.4 nM
CC[C@H](C)[C@H](NC(=O)[C@H](CO)NC(=O)[C@H](C)NC(=O)[C@H](CC(=O)O)NC(=O)[C@H](Cc1ccccc1)NC(=O)[C@H](CCC(=O)O)NC(=O)[C@H](CC(=O)O)NC(=O)[C@H](Cc1c[nH]c2ccccc12)NC(C)=O)C(=O)N[C@@H](CCC(=O)O)C(=O)N[C@@H](CCC(=O)O)C(=O)N[C@H](C(=O)N[C@@H](CC(N)=O)C(=O)N[C@@H](CCCNC(=N)N)C(=O)N[C@@H](CCCNC(=N)N)C(=O)N[C@H](C(=O)N[C@@H](CCC(=O)O)C(=O)N[C@@H](CCC(=O)O)C(=O)N[C@@H](CO)C(=O)N[C@@H](CC(C)C)C(=O)N[C@@H](CCCNC(=N)N)C(=O)N[C@@H](CCCNC(=N)N)C(=O)N[C@H](C(=O)N[C@@H](CCC(=O)O)C(=O)N[C@@H](CCC(=O)O)C(=O)N[C@@H](CO)C(=O)N[C@@H](CC(=O)O)C(=O)N[C@@H](CCCNC(=N)N)C(=O)N[C@@H](CCCNC(=N)N)C(=O)N[C@@H](CC(C)C)C(=O)N[C@@H](CCC(=O)O)C(=O)N[C@@H](CCC(=O)O)C(=O)N[C@H](C(=O)N[C@@H](CCC(=O)O)C(=O)N[C@@H](C)C(=O)N[C@@H](C)C(=O)N[C@@H](C)C(=O)N[C@@H](CCCCN)C(=O)N[C@@H](CCCCNC(=O)CCC(=O)O[C@H]1CC[C@@]2(C)C(=CC[C@H]3[C@@H]4CC[C@H]([C@H](C)CCCC(C)C)[C@@]4(C)CC[C@@H]32)C1)C(N)=O)C(C)C)[C@@H](C)CC)[C@@H](C)CC)C(C)C [Compound 43] (Ac-WDEFDASIEEVNRRIEESLRRIEESDRRLEEVEAAAKK(Succinyl(4-O-cholesteryl))-NH2)	12200 nM	16.1 nM
